Reference: publication PMC11574021, “CEP192 localises mitotic Aurora-A activity by priming its interaction with TPX2” (The EMBO Journal, 2024)

Legend:
[1] = system: TACC3 in RPE1 p53-/- cells; assay: Immunofluorescence, TACC3 spindle signal intensity, RPE1 p53-/-; format: cell-based, Homo sapiens; conditions: Aurora-A inhibitor 30 min or siRNA 48 h
Procedure: (§1) As noted in the figures, the following drugs were incubated with cells for 30 min at 37 °C: Aurora-B-i ZM447439 2 µM [10 mM], PLK1-I BI2536 1 µM [10 mM] and Aurora-A-i MLN8237 [5 mM] was used at 250 and 500 nM in U251 and RPE1 cells, respectively. Drugs were resuspended in DMSO to the stock concentrations indicated in square brackets. BI2536 (HY-50698), MLN8237 (HY-10971) and ZM447439 (HY-10128) were all purchased from MedChemExpress. For western blotting, a 20-min pre-treatment with proteasome inhibitor (20 µM MG-132, MerckMillipore, 47490 [20 mM]) was required prior to the addition of DMSO control or kinase inhibitors. This prevented mitotic exit as a consequence of checkpoint override following Aurora-A and Aurora-B inhibitor addition.
siRNA depletion was carried out by reverse transfection using oligofectamine (Thermo Scientific, 12252011) and lipofectamine RNAiMax (Thermo Scientific, 13778075), according to the manufacturer’s instructions, for U251 and RPE1 cells, respectively. For immunofluorescence, 1 × 10^5 cells were seeded in six-well plates and simultaneously transfected with 60 pmol siRNA duplex and 3 µl transfection reagent diluted in 200 µl Opti-MEM serum-free medium. Growth medium was added to a final volume of 2 ml. […]

[2] = system: Aurora-A-pT288 in U251 cells; assay: Western blot densitometry of Aurora-A-pT288, mitotic U251 cells; format: cell-based, Homo sapiens; conditions: mitotic U251 (and RPE1) lysates, siRNA 48 h, in words
Procedure: For western blotting analysis of mitotic lysates, cells were synchronised in mitosis with 10 µM S-Trityl-L-cysteine (STLC, Bio-Techne, 2191-50), an Eg5 inhibitor, for 20 h prior to collecting by mitotic shake-off. For measuring monopolar spindle diameter and counting centriolar foci by immunofluorescence, cells were treated with 10 µM STLC for 1 h and 4 h prior to fixation, respectively.
as §1
Cells were lysed on ice for 30 min in lysis buffer (50 mM tris pH 8.0, 300 mM NaCl, 0.2%(v/v) NP-40, 10%(v/v) glycerol, protease inhibitor cocktail C, phosphatase inhibitor cocktail 3 (Sigma, 1:200 dilution), 100 nM okadaic acid (Enzo, ALX-350-003-C100)). Lysates were then centrifuged at 14,000 × g, 15 min, 4 °C, the supernatants were transferred to a fresh tube, and the pellet was discarded. Protein concentrations were measured by Bradford assay using Protein Assay Dye Reagent Concentrate (Bio-Rad Laboratories, 5000006). NuPage LDS sample buffer, supplemented with NuPAGE sample reducing agent (Invitrogen) were added prior to boiling for 10 min at 90 °C. […]
Densitometric quantification of western blots was also performed in ImageJ. Intensity was measured in a rectangular region of interest (ROI) around each band. […] An adjacent region was also measured to account for background intensity.

Compound: COc1cc(Nc2ncc3c(n2)-c2ccc(Cl)cc2C(c2c(F)cccc2OC)=NC3)ccc1C(=O)O [Alisertib]
- spindle recruitment of TACC3 [1]: abrogated spindle recruitment of TACC3

Compound: 5′-CGGUAGUGAUAAAAGCUCAtt-3′ [siTPX2]
- spindle recruitment of TACC3 [1]: fully prevented both spindle recruitment of TACC3
- activation loop phosphorylation (pT288) of Aurora-A in mitotic cell lysates [2]: strongly reduced activation loop phosphorylation (pT288) of Aurora-A

Compound: 5′-CAAACAACUUGGAAAUCGAtt-3′ [siCEP192]
- activation loop phosphorylation (pT288) of Aurora-A in mitotic cell lysates [2]: comparable reduction in pT288 Aurora-A levels to that of TPX2
